Source: PubChem BioAssay AID330 (DTP/NCI, 2004)
Where “and” joins values, the source holds several entries; their conditions need not be identical. Identical values can stand only once. Toxic doses and inconclusive results are not listed.

System: P388 leukemia ip, CD2F1 mice, survival T/C
Experiment: NCI In Vivo Anticancer Drug Screen. Data for tumor model P388 Leukemia (intraperitoneal) in CD2F1 (CDF1) mice
Details: endpoint: median survival time, higher = longer survival
Summary of the method: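 Mice carrying the transplanted tumor received test compound or vehicle. Survival was recorded in each group, and the value is the treated-group measurement divided by that of the vehicle-treated control group.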

[1] = dose: 50.0 mg/kg/injection, schedule: Q01DX009 (ip), vehicle: saline with Tween-80
[2] = dose: 100.0 mg/kg/injection, schedule: Q01DX009 (ip), vehicle: saline with Tween-80
[3] = dose: 200.0 mg/kg/injection, schedule: Q01DX009 (ip), vehicle: saline with Tween-80
[4] = dose: 12.5 mg/kg/injection, schedule: Q01DX009 (ip), vehicle: saline with Tween-80
[5] = dose: 25.0 mg/kg/injection, schedule: Q01DX009 (ip), vehicle: saline with Tween-80
[6] = dose: 50.0 mg/kg/injection, schedule: Q01DX005 (ip), vehicle: Klucel (hydroxypropylcellulose) (HPC)
[7] = dose: 100.0 mg/kg/injection, schedule: Q01DX005 (ip), vehicle: Klucel (hydroxypropylcellulose) (HPC)
[8] = dose: 200.0 mg/kg/injection, schedule: Q01DX005 (ip), vehicle: Klucel (hydroxypropylcellulose) (HPC)

In the case of `COc1ccc2c(c1)CCC1C2CCC2(C)C1CCC2(O)CCN=[N+]=[N-]` (configuration not stated), the T/C [1] is reported as 104 % of control, the T/C [2] is reported as 101 % of control and the T/C [3] is reported as 101 % of control.
`CC1CN=C(c2ccc(NC(=O)Nc3ccc(C(=O)Nc4ccc(C5=NCC(C)N5)cc4)cc3)cc2)N1` (configuration not stated) was tested, and the T/C [4] was 195 % of control, the T/C [5] was 159 % of control and 213 % of control and the T/C (dose: 25.0 mg/kg/injection, schedule: Q04DX003 (ip), vehicle: saline with Tween-80) was 116 % of control. The T/C [1] was 95 % of control, the T/C (dose: 100.0 mg/kg/injection, schedule: Q04DX003 (ip), vehicle: saline with Tween-80) was 150 % of control and the T/C (dose: 100.0 mg/kg/injection, schedule: Q04DX003 (ip), vehicle: saline) was 163 % of control.
`O=[N+]([O-])c1ccc(Sc2nccc(Cl)n2)c([N+](=O)[O-])c1` was tested, and the T/C (dose: 50.0 mg/kg/injection, schedule: Q01DX009 (ip), vehicle: suspension in saline) was 100 % of control, the T/C (dose: 100.0 mg/kg/injection, schedule: Q01DX009 (ip), vehicle: saline) was 92 % of control and the T/C (dose: 100.0 mg/kg/injection, schedule: Q01DX009 (ip), vehicle: suspension in saline) was 98 % of control. The T/C (dose: 200.0 mg/kg/injection, schedule: Q01DX009 (ip), vehicle: saline) was 104 % of control and the T/C (dose: 200.0 mg/kg/injection, schedule: Q01DX009 (ip), vehicle: suspension in saline) was 91 % of control.
In the case of `N#C/C(=C/C=C/c1ccccc1)c1ccccc1`, the T/C [6] is reported as 109 % of control, the T/C [7] is reported as 102 % of control and the T/C [8] is reported as 104 % of control.
With `CCCCCCCCCCCCCCCC(=O)NCCN(CC)CC` the T/C [4] was 105 % of control and the T/C [5] was 100 % of control.
`COc1nc2n[nH]nc2c(=O)n1C` was tested, and the T/C (dose: 60.0 mg/kg/injection, schedule: Q01DX005 (ip), vehicle: saline with Tween-80) was 104 % of control, the T/C (dose: 120.0 mg/kg/injection, schedule: Q01DX005 (ip), vehicle: saline with Tween-80) was 102 % of control and the T/C (dose: 240.0 mg/kg/injection, schedule: Q01DX005 (ip), vehicle: saline with Tween-80) was 101 % of control.
`CN(CCC(=O)c1ccc(Cl)cc1)CCC(=O)c1ccc(Cl)cc1` was tested, and the T/C [6] was 117 % of control, the T/C [7] was 108 % of control and the T/C [8] was 104 % of control.
For `COc1ccc2c(c1OC)N(C)CC1=C2OC(C)(C)C2C1CC1(C)CC2c2c(c3ccc(OC)c(OC)c3n(C)c2=O)O1` (configuration not stated), the T/C (dose: 12.5 mg/kg/injection, schedule: Q01DX005 (ip), vehicle: Klucel (hydroxypropylcellulose) (HPC)) was 90 % of control, the T/C (dose: 25.0 mg/kg/injection, schedule: Q01DX005 (ip), vehicle: Klucel (hydroxypropylcellulose) (HPC)) was 93 % of control and the T/C [6] was 90 % of control.
For `C/C(=C1/c2ccccc2-c2n[nH]c(C)c21)S(=O)(=O)O`, the T/C [2] was 109 % of control, the T/C [3] was 109 % of control and the T/C (dose: 400.0 mg/kg/injection, schedule: Q01DX009 (ip), vehicle: saline with Tween-80) was 100 % of control.
With `CCCCCC(O)(CCCCC)CCCCC` the T/C (dose: 60.0 mg/kg/injection, schedule: Q01DX005 (ip), vehicle: saline) was 101 % of control, the T/C (dose: 120.0 mg/kg/injection, schedule: Q01DX005 (ip), vehicle: saline) was 101 % of control and the T/C (dose: 240.0 mg/kg/injection, schedule: Q01DX005 (ip), vehicle: saline) was 92 % of control.
`COc1cccc2c1C(=O)c1c(O)c3c(c(O)c1C2=O)CC(O)(C(C)NCCCO)CC3OC1CC(N)C(O)C(C)O1` (configuration not stated) was tested, and the T/C (dose: 1.5 mg/kg/injection, schedule: Q01DX009 (ip), vehicle: water) was 111 % of control, the T/C (dose: 24.0 mg/kg/injection, schedule: Q01DX009 (ip), vehicle: water) was 168 % of control and 172 % of control and the T/C (dose: 48.0 mg/kg/injection, schedule: Q01DX009 (ip), vehicle: water) was 173 % of control.
For `COc1ccc(N=Nc2c(C)[nH]n(C)c2=O)cc1`, the T/C (dose: 100.0 mg/kg/injection, schedule: Q04DX002 (ip), vehicle: saline with Tween-80) was 96 % of control and the T/C (dose: 200.0 mg/kg/injection, schedule: Q04DX002 (ip), vehicle: saline with Tween-80) was 97 % of control.
`CCCCCCN(CCCCCC)C(C)C(=O)c1ccc2cc(Br)c3ccccc3c2c1` (configuration not stated) was tested, and the T/C (dose: 50.0 mg/kg/injection, schedule: Q01DX005 (ip), vehicle: saline with Tween-80) was 91 % of control, the T/C (dose: 100.0 mg/kg/injection, schedule: Q01DX005 (ip), vehicle: saline with Tween-80) was 94 % of control and the T/C (dose: 200.0 mg/kg/injection, schedule: Q01DX005 (ip), vehicle: saline with Tween-80) was 94 % of control.
